Data: the supplement of paper PMC10307832

How the values were obtained:
Experiment in all cases: relative viability (nuclei count vs DMSO), 5 days (fraction); higher = more cells survive
NCI-H2085 = tested on: NCI-H2085
Method in brief: (§1)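 Medians of duplicate plates are given as relative viability. That measure is the nuclei count in treated wells divided by the count in vehicle wells. Counts were taken on 4× images of lung cancer cell lines in 1536-well plates, 5 days after pin-tool dosing the day after seeding with one drug alone or a fixed anchor-drug dose plus five library-drug doses (not always all listed) in √10 steps.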

NCI-H460 = tested on: NCI-H460
Method in brief: as §1

COR-L23 = tested on: COR-L23
Method in brief: as §1

NCI-H1563 = tested on: NCI-H1563
Method in brief: as §1

NCI-H1355 = tested on: NCI-H1355
Method in brief: as §1

NCI-H2023 = tested on: NCI-H2023
Method in brief: as §1

LOU-NH91 = tested on: LOU-NH91
Method in brief: as §1

NCI-H838 = tested on: NCI-H838
Method in brief: as §1

NCI-H1975 = tested on: NCI-H1975
Method in brief: as §1

NCI-H2342 = tested on: NCI-H2342
Method in brief: as §1

BEN = tested on: BEN
Method in brief: as §1

NCI-H1437 = tested on: NCI-H1437
Method in brief: as §1

LU99A = tested on: LU99A
Method in brief: as §1

SK-LU-1 = tested on: SK-LU-1
Method in brief: as §1

CAL-12T = tested on: CAL-12T
Method in brief: as §1

NCI-H1651 = tested on: NCI-H1651
Method in brief: as §1

NCI-H358 = tested on: NCI-H358
Method in brief: as §1

NCI-H1650 = tested on: NCI-H1650
Method in brief: as §1

NCI-H1793 = tested on: NCI-H1793
Method in brief: as §1

NCI-H1734 = tested on: NCI-H1734
Method in brief: as §1

NCI-H441 = tested on: NCI-H441
Method in brief: as §1

CCN(CC)CCCCNc1ncc2cc(-c3cc(OC)cc(OC)c3)c(NC(=O)NC(C)(C)C)nc2n1 + CCNC(=O)c1noc(-c2cc(C(C)C)c(O)cc2O)c1-c1ccc(CN2CCOCC2)cc1 [Luminespib] (partner 0.01 µM)
relative viability (NCI-H2085; first compound 0.01 µM): 0.419 | relative viability (NCI-H2085; first compound 0.03162 µM): 0.424 | relative viability (NCI-H2085; first compound 0.1 µM): 0.402 | relative viability (NCI-H2085; first compound 0.3162 µM): 0.405 | relative viability (NCI-H2085; first compound 1 µM): 0.458 | relative viability (NCI-H460; first compound 0.01 µM): 0.0378 | relative viability (NCI-H460; first compound 0.03162 µM): 0.0357 | relative viability (NCI-H460; first compound 0.1 µM): 0.0341 | relative viability (NCI-H460; first compound 0.3162 µM): 0.0358 | relative viability (NCI-H460; first compound 1 µM): 0.0473 | relative viability (COR-L23; first compound 0.01 µM): 0.799 | relative viability (COR-L23; first compound 0.03162 µM): 0.707 | relative viability (COR-L23; first compound 0.1 µM): 0.955 | relative viability (COR-L23; first compound 0.3162 µM): 1.03 | relative viability (COR-L23; first compound 1 µM): 0.639 | relative viability (NCI-H1563; first compound 0.01 µM): 0.537 | relative viability (NCI-H1563; first compound 0.03162 µM): 0.532 | relative viability (NCI-H1563; first compound 0.1 µM): 0.549 | relative viability (NCI-H1563; first compound 0.3162 µM): 0.597 | relative viability (NCI-H1563; first compound 1 µM): 0.545 | relative viability (NCI-H1355; first compound 0.01 µM): 0.795 | relative viability (NCI-H1355; first compound 0.03162 µM): 0.824 | relative viability (NCI-H1355; first compound 0.1 µM): 0.704 | relative viability (NCI-H1355; first compound 0.3162 µM): 0.738 | relative viability (NCI-H1355; first compound 1 µM): 0.649 | relative viability (NCI-H2023; first compound 0.01 µM): 0.663 | relative viability (NCI-H2023; first compound 0.03162 µM): 1.05 | relative viability (NCI-H2023; first compound 0.1 µM): 0.745 | relative viability (NCI-H2023; first compound 0.3162 µM): 0.833 | relative viability (NCI-H2023; first compound 1 µM): 0.545 | relative viability (LOU-NH91; first compound 0.01 µM): 0.338 | relative viability (LOU-NH91; first compound 0.03162 µM): 0.364 | relative viability (LOU-NH91; first compound 0.1 µM): 0.36 | relative viability (LOU-NH91; first compound 0.3162 µM): 0.421 | relative viability (LOU-NH91; first compound 1 µM): 0.356 | relative viability (NCI-H838; first compound 0.01 µM): 0.344 | relative viability (NCI-H838; first compound 0.03162 µM): 0.244 | relative viability (NCI-H838; first compound 0.1 µM): 0.304 | relative viability (NCI-H838; first compound 0.3162 µM): 0.304 | relative viability (NCI-H838; first compound 1 µM): 0.3 | relative viability (NCI-H1975; first compound 0.01 µM): 0.161 | relative viability (NCI-H1975; first compound 0.03162 µM): 0.148 | relative viability (NCI-H1975; first compound 0.1 µM): 0.201 | relative viability (NCI-H1975; first compound 0.3162 µM): 0.366 | relative viability (NCI-H1975; first compound 1 µM): 0.199 | relative viability (NCI-H2342; first compound 0.01 µM): 0.775 | relative viability (NCI-H2342; first compound 0.03162 µM): 0.833 | relative viability (NCI-H2342; first compound 0.1 µM): 0.768 | relative viability (NCI-H2342; first compound 0.3162 µM): 0.633 | relative viability (NCI-H2342; first compound 1 µM): 0.811 | relative viability (BEN; first compound 0.01 µM): 0.249 | relative viability (BEN; first compound 0.03162 µM): 0.243 | relative viability (BEN; first compound 0.1 µM): 0.545 | relative viability (BEN; first compound 0.3162 µM): 0.496 | relative viability (BEN; first compound 1 µM): 0.297 | relative viability (NCI-H1437; first compound 0.01 µM): 1.18 | relative viability (NCI-H1437; first compound 0.03162 µM): 1.1 | relative viability (NCI-H1437; first compound 0.1 µM): 1.26 | relative viability (NCI-H1437; first compound 0.3162 µM): 1.1 | relative viability (NCI-H1437; first compound 1 µM): 1.05 | relative viability (LU99A; first compound 0.01 µM): 0.301 | relative viability (LU99A; first compound 0.03162 µM): 0.251 | relative viability (LU99A; first compound 0.1 µM): 0.197 | relative viability (LU99A; first compound 0.3162 µM): 0.25 | relative viability (LU99A; first compound 1 µM): 0.27 | relative viability (SK-LU-1; first compound 0.01 µM): 0.199 | relative viability (SK-LU-1; first compound 0.03162 µM): 0.197 | relative viability (SK-LU-1; first compound 0.1 µM): 0.197 | relative viability (SK-LU-1; first compound 0.3162 µM): 0.236 | relative viability (SK-LU-1; first compound 1 µM): 0.168 | relative viability (CAL-12T; first compound 0.01 µM): 0.63 | relative viability (CAL-12T; first compound 0.03162 µM): 0.338 | relative viability (CAL-12T; first compound 0.1 µM): 0.363 | relative viability (CAL-12T; first compound 0.3162 µM): 0.445 | relative viability (CAL-12T; first compound 1 µM): 0.347 | relative viability (NCI-H1651; first compound 0.01 µM): 0.886 | relative viability (NCI-H1651; first compound 0.03162 µM): 0.875 | relative viability (NCI-H1651; first compound 0.1 µM): 0.779 | relative viability (NCI-H1651; first compound 0.3162 µM): 1.33 | relative viability (NCI-H1651; first compound 1 µM): 0.781 | relative viability (NCI-H358; first compound 0.01 µM): 0.429 | relative viability (NCI-H358; first compound 0.03162 µM): 0.193 | relative viability (NCI-H358; first compound 0.1 µM): 0.348 | relative viability (NCI-H358; first compound 0.3162 µM): 0.503 | relative viability (NCI-H358; first compound 1 µM): 0.347 | relative viability (NCI-H1650; first compound 0.01 µM): 0.227 | relative viability (NCI-H1650; first compound 0.03162 µM): 0.214 | relative viability (NCI-H1650; first compound 0.1 µM): 0.204 | relative viability (NCI-H1650; first compound 0.3162 µM): 0.206 | relative viability (NCI-H1650; first compound 1 µM): 0.203 | relative viability (NCI-H1793; first compound 0.01 µM): 0.345 | relative viability (NCI-H1793; first compound 0.03162 µM): 0.198 | relative viability (NCI-H1793; first compound 0.1 µM): 0.166 | relative viability (NCI-H1793; first compound 0.3162 µM): 0.157 | relative viability (NCI-H1793; first compound 1 µM): 0.156 | relative viability (NCI-H1734; first compound 0.01 µM): 0.0982 | relative viability (NCI-H1734; first compound 0.03162 µM): 0.189 | relative viability (NCI-H1734; first compound 0.1 µM): 0.19 | relative viability (NCI-H1734; first compound 0.3162 µM): 0.197 | relative viability (NCI-H1734; first compound 1 µM): 0.178 | relative viability (NCI-H441; first compound 0.01 µM): 0.313 | relative viability (NCI-H441; first compound 0.03162 µM): 0.422 | relative viability (NCI-H441; first compound 0.1 µM): 0.344 | relative viability (NCI-H441; first compound 0.3162 µM): 0.353 | relative viability (NCI-H441; first compound 1 µM): 0.362
